Assay results from patent US9265746B2, “Method for cell-specific targeting” (priority 2006, dated 2016).

System: KB-cell xenografts
Assay: Biodistribution of folate radiotracers in athymic nude mice bearing KB-cell xenografts, with or without antifolate
Type: in vivo
Details: 4 h p.i.; antifolate named in label pre-injected 1 h before radiotracer
Protocol: Preparation of cells for in vivo experiments: For subcutaneous inoculation of the mice sub-confluent cells were harvested by treatment with EDTA (1 mM) in PBS (1×, pH 7.4). The cells were then washed once with PBS and pelleted by spinning at 1000×g for 5 min at 20° C. The cells were resuspended in PBS to obtain a concentration of 50×10^6 cells/mL.
In Vivo Studies. 4-5-week-old female, athymic nude mice (CD1-Foxn1/nu) were purchased from Charles River Laboratories (Sulzfeld, Germany). Mice were housed under conditions of controlled temperature (26° C.), humidity (68%) and daily light cycle (12 h light/12 h dark). The animals were fed with a folate-deficient rodent diet (to reduce their serum folate to a level near that of humans) (Mathias et al, J. Nucl. Med. 1996; 37:1003-08). After an acclimation period of 5-7 days, the mice were inoculated subcutaneously with the tumour cell suspension (5×10^6 cells) into the subcutis of the axilla. Radiotracer distribution studies were performed 12-14 days after tumour cell inoculation. The radiotracer (100 μL, 1a: 3.5 MBq/mL or 1b: 7 MBq/mL) was administered via a lateral tail vein. Antifolates (MTX, RTX and PMX) were dosed according to literature experiments at the upper limit of the tolerated dose (Li et al, Clin. Exp. Pharmacol. Physiol. 2004; 31:267-70; Pritchard et al, Clin. Cancer Res. 2000; 6:4389-95; Hughes et al, Journal of Clinical Oncology 2002; 20:3533-44; Aherne et al, Br. J. Cancer 1998; 77:221-26). MTX was supplemented to the drinking water (80 mg/mL) or intravenously injected (400 μg), 24 h, 2 h, 1 h, 30 min and 15 min previous to the administration of radiotracer 1a. RTX (100 μg) and PMX (400 μg) respectively were administered intravenously 2 h, 1 h, 30 min and 15 min previous to the radiotracer 1a. The animals were sacrificed and dissected 4 h p.i. of the radiotracer 1a. Additional biodistribution experiments were performed (30 min), 1 h, 4 h and 24 h post injection of the radiotracer 1a or 1b respectively with (antifolate) pre-treated animals 1 h previous to the experiment. The selected tissues were removed, weighted, and counted for radioactivity to determine distribution of radioactivity within the test animal. The results were tabulated as percentage of the injected dose per gram (% ID/g) of weight tissue, using reference counts from a definite sample of the original injectate.

With `Nc1nc2ncc(CNc3ccc(C(=O)NC(CCC(=O)NCCCCCC[N+]45Cc6cccc[n+]6[99Tc-5]4([C]#[O+])([C]#[O+])([C]#[O+])[n+]4ccccc4C5)C(=O)O)cc3)nc2c(=O)[nH]1` (stereo not drawn) [radiotracer 3a] the biodistribution blood was 0.03 ± 0.01 % ID/g, the biodistribution bone was 0.16 ± 0.02 % ID/g and the “biodistribution contents of intest.” value was 2.49 ± 12.10 % ID/g. It also gave a biodistribution heart of 0.20 ± 0.09 % ID/g, a biodistribution intestines of 0.71 ± 0.40 % ID/g and a biodistribution kidney of 7.11 ± 0.75 % ID/g. The biodistribution liver was 1.72 ± 2.04 % ID/g, the biodistribution lung was 0.20 ± 0.02 % ID/g and the biodistribution muscle was 0.27 ± 0.01 % ID/g. The biodistribution spleen was 0.08 ± 0.02 % ID/g, the biodistribution stomach was 0.54 ± 0.58 % ID/g and the biodistribution tumour was 0.82 ± 0.27 % ID/g. For the same compound, the tumour-to-blood was 27.00 ± 14.60, the tumour-to-kidney was 0.12 ± 0.05 and the tumour-to-liver was 1.24 ± 1.03.

For `Nc1nc2ncc(CNc3ccc(C(=O)NC(CCC(=O)NCCCCCCn4cc5[n+](c4)[99Tc-5]4([C]#[O+])([C]#[O+])([C]#[O+])[NH2+]C(C5)C(=O)[O]4)C(=O)O)cc3)nc2c(=O)[nH]1` (stereo not drawn) [radiotracer 2a], the biodistribution blood was 0.19 ± 0.18 % ID/g, the biodistribution bone was 0.82 ± 0.13 % ID/g and the “biodistribution contents of intest.” value was 7.72 ± 4.36 % ID/g. It also gave a biodistribution heart of 0.80 ± 0.60 % ID/g, a biodistribution intestines of 0.79 ± 0.43 % ID/g and a biodistribution kidney of 42.02 ± 7.31 % ID/g. It also gave a biodistribution liver of 4.51 ± 1.29 % ID/g, a biodistribution lung of 0.85 ± 0.08 % ID/g and a biodistribution muscle of 1.31 ± 0.28 % ID/g. It also gave a biodistribution spleen of 0.30 ± 0.05 % ID/g, a biodistribution stomach of 0.62 ± 0.22 % ID/g and a biodistribution tumour of 3.72 ± 0.89 % ID/g. For the same compound, the tumour-to-blood was 12.29 ± 4.22, the tumour-to-kidney was 0.09 ± 0.02 and the tumour-to-liver was 0.88 ± 0.38.
